Experimental data as given in BindingDB's records for doi:10.1016/j.bmcl.2017.11.013 (Csir-Indian Institute of Integrative Medicine, 2017).

Key:
[1] = Inhibition of human CYP1B1 expressed in MDA-MB-468 cells assessed as potentiation of cisplatin-induced cytotoxicity by measuring cisplatin EC50 at 20 uM (Rvb = 6.70+/- 0.7 uM)
[2] = Inhibition of human CYP1A1 transfected in HEK293 cells assessed as protection against CYP1A1 mediated B[a]P toxicity by measuring B[a]P EC50 at 20 uM by MTT assay (Rvb =1.2+/- 0.3 uM)
[3] = Inhibition of human CYP1B1 expressed in MDA-MB-468 cells assessed as potentiation of cisplatin-induced cytotoxicity by measuring cisplatin EC50 at 6.6 uM (Rvb = 6.70+/- 0.7 uM)

**Q.** For O=c1cc(-c2ccccc2)oc2c1ccc1ccccc12, which EC50 [1] is on record?
**A.** 5.1 µM

**Q.** Which EC50 [2] does the source give for CC(C)=CCc1cc(C2CC(=O)c3ccc(O)c(CC=C(C)C)c3O2)ccc1O (stereo not given) here?
**A.** 2.3 µM

**Q.** And the EC50 [1]?
**A.** 5.2 µM

**Q.** Which EC50 [3] does the source give for O=c1c(O)c(-c2ccc(O)c(O)c2)oc2cc(O)cc(O)c12 [2-(3,4-dihydroxyphenyl)-3,5,7-trihydroxy-chromone;hydrate] here?
**A.** 1.1 µM

**Q.** And the EC50 [2]?
**A.** 8.8 µM
